Test results taken from PMC10247784, “Physiological activation of human and mouse bitter taste receptors by bile acids” (Communications Biology, 2023).

Target: T1, mouse Tas2r144 (Mus musculus, UniProt Q7TQB8)
T1 construct: expressed in transfected cells; host or cells: HEK293T-Gα16gust44
Experiment: Calcium imaging assay (FLIPR), HEK293T-Gα16gust44 cells transfected with mouse Tas2r144
Type: cell-based
Protocol: This set of bile acids was chosen because of their commercial availability in high purities, their diversity within the class of bile acids and their previous detection and quantitation in human blood. Stock solutions were prepared in DMSO.
As basal growth medium for the HEK293T-Gα16gust44 cell line[17],[59] served Dulbecco’s modified eagle medium (DMEM) (Thermo Fisher Scientific, Darmstadt, Germany) supplemented with 10 % fetal bovine serum (Sigma-Aldrich, Steinheim, Germany), 2 mM L-glutamine (Sigma-Aldrich, Steinheim, Germany), 100 units/ml penicillin (Sigma Aldrich, Steinheim, Germany) and 100 µg/ml streptomycin (Sigma Aldrich, Steinheim, Germany). Growth conditions were 37 °C, 5 % CO2 and saturated air-humidity[60].
HEK293T-Gα16gust44 cells were seeded on poly-D-lysine (10 µg/ml) coated 96-well plates to reach a confluence of 40-60 % the next day. For transient transfection 150 ng of plasmid DNA containing the receptor of interest and 0.3 µl lipofectamine 2000 (Thermo Fisher Scientific, Darmstadt, Germany) per well were used and transfection took place according to the manual of lipofectamine 2000. […] The empty vector DNA (mock) was transfected as negative control[14],[41].
Cells were loaded using the calcium-sensitive fluorescent dye Fluo-4-AM (Abcam, Cambridge, Great Britain) in the presence of 2.5 mM probenecid (Sigma-Aldrich, Steinheim, Germany) the day after transfection[13],[41]. 1 h after loading, cells were washed with C1 buffer using a BioTek Cell Washer, incubated in the dark for half an hour and washed again. For automated agonist application and measurement of fluorescence changes, a FLIPR^TETRA device (Molecular Devices, San José, United States) was used. Viability of cells was tested by application of 100 nM Somatostatin 14 (Bachem, Bubendorf, Switzerland)[42].
Measured data were negative control corrected by subtracting the signal of the mock-transfected cells and exported to Microsoft Excel using the FLIPR software ScreenWorks 4.2. In Microsoft Excel software, standardization of maximum fluorescence intensities to the basal fluorescence and normalization to the buffer-only control was done to calculate the relative fluorescence changes (ΔF/F).
Initial screening experiments performed in duplicate wells were confirmed by at least one replication and representative traces were selected for display. All dose-response relationships were determined by three independent experiments (biological replicates) performed in duplicates (technical replicates). Threshold concentrations, defined as lowest substance concentrations leading to statistically significant elevated fluorescence changes in receptor-transfected cells compared with empty vector-transfected cells, were determined using SigmaPlot with Student’s t-test to evaluate statistical significance (p < 0.01).

T1 sequence (Q7TQB8 whole entry): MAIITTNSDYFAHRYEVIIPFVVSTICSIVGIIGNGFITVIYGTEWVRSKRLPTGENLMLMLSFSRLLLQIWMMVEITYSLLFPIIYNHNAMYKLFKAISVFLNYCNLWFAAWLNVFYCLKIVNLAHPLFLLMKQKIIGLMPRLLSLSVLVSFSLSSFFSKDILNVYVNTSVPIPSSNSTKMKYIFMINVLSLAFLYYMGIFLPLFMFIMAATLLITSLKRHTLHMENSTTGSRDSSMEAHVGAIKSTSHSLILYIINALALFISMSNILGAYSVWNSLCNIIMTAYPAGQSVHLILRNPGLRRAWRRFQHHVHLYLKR

Question: For `C[C@H](CCC(=O)O)[C@H]1CC[C@H]2[C@@H]3[C@H](O)C[C@@H]4C[C@H](O)CC[C@]4(C)[C@H]3C[C@H](O)[C@]12C` [Cholic Acid, cholic acid], which RLU (Time 0 s) is on record?
Answer: 0 RLU

Question: What about the RLU (Time 2 s) of the same molecule?
Answer: 0.2042 RLU

Question: What about the RLU (Time 4 s) of the same molecule?
Answer: 5.384 RLU

Question: What about the RLU (Time 6 s) of the same molecule?
Answer: -45.6095 RLU

Question: And the RLU (Time 8 s)?
Answer: 13.5839 RLU

Question: And the RLU (Time 12 s)?
Answer: 34.8706 RLU

Question: And the RLU (Time 14 s)?
Answer: 52.0817 RLU

Question: What about the RLU (Time 16 s) of the same molecule?
Answer: 11.4185 RLU

Question: What about the RLU (Time 18 s) of the same molecule?
Answer: 29.9569 RLU

Question: What about the RLU (Time 18.781 s) of the same molecule?
Answer: 46.048 RLU

Question: And the RLU (Time 20.781 s)?
Answer: 112.965 RLU

Question: What about the RLU (Time 22.781 s) of the same molecule?
Answer: 165.689 RLU

Question: And the RLU (Time 24.781 s)?
Answer: 205.772 RLU

Question: What about the RLU (Time 26.781 s) of the same molecule?
Answer: 242.163 RLU

Question: And the RLU (Time 28.781 s)?
Answer: 320.656 RLU

Question: And the RLU (Time 30.781 s)?
Answer: 367.762 RLU

Question: And the RLU (Time 32.781 s)?
Answer: 422.903 RLU

Question: And the RLU (Time 34.781 s)?
Answer: 499.119 RLU

Question: What about the RLU (Time 36.781 s) of the same molecule?
Answer: 524.9 RLU

Question: What about the RLU (Time 38.781 s) of the same molecule?
Answer: 565.569 RLU

Question: What about the RLU (Time 40.781 s) of the same molecule?
Answer: 583.905 RLU

Question: What about the RLU (Time 42.781 s) of the same molecule?
Answer: 606.644 RLU

Question: And the RLU (Time 44.781 s)?
Answer: 633.066 RLU

Question: And the RLU (Time 46.781 s)?
Answer: 639.921 RLU

Question: What about the RLU (Time 48.781 s) of the same molecule?
Answer: 638.534 RLU

Question: And the RLU (Time 50.781 s)?
Answer: 641.518 RLU

Question: What about the RLU (Time 52.781 s) of the same molecule?
Answer: 632.385 RLU

Question: What about the RLU (Time 54.781 s) of the same molecule?
Answer: 644.317 RLU

Question: What about the RLU (Time 56.781 s) of the same molecule?
Answer: 655.573 RLU

Question: What about the RLU (Time 58.781 s) of the same molecule?
Answer: 678.513 RLU

Question: And the RLU (Time 60.781 s)?
Answer: 666.775 RLU

Question: What about the RLU (Time 62.781 s) of the same molecule?
Answer: 667.745 RLU

Question: What about the RLU (Time 64.781 s) of the same molecule?
Answer: 637 RLU

Question: What about the RLU (Time 66.781 s) of the same molecule?
Answer: 647.88 RLU

Question: And the RLU (Time 68.781 s)?
Answer: 635.725 RLU

Question: And the RLU (Time 70.781 s)?
Answer: 644.081 RLU

Question: And the RLU (Time 72.781 s)?
Answer: 655.408 RLU

Question: And the RLU (Time 74.781 s)?
Answer: 647.263 RLU

Question: And the RLU (Time 76.781 s)?
Answer: 633.033 RLU

Question: What about the RLU (Time 78.781 s) of the same molecule?
Answer: 631.561 RLU

Question: What about the RLU (Time 80.781 s) of the same molecule?
Answer: 620.522 RLU

Question: And the RLU (Time 82.781 s)?
Answer: 627.467 RLU

Question: What about the RLU (Time 84.781 s) of the same molecule?
Answer: 627.103 RLU

Question: What about the RLU (Time 86.781 s) of the same molecule?
Answer: 578.642 RLU

Question: And the RLU (Time 88.781 s)?
Answer: 568.631 RLU

Question: What about the RLU (Time 90.781 s) of the same molecule?
Answer: 548.759 RLU

Question: What about the RLU (Time 92.781 s) of the same molecule?
Answer: 576.256 RLU

Question: What about the RLU (Time 94.781 s) of the same molecule?
Answer: 543.082 RLU

Question: What about the RLU (Time 96.781 s) of the same molecule?
Answer: 562.136 RLU

Question: And the RLU (Time 98.781 s)?
Answer: 521.114 RLU

Question: What about the RLU (Time 100.781 s) of the same molecule?
Answer: 533.293 RLU

Question: What about the RLU (Time 102.781 s) of the same molecule?
Answer: 509.746 RLU

Question: And the RLU (Time 104.781 s)?
Answer: 492.298 RLU

Question: And the RLU (Time 106.781 s)?
Answer: 485.694 RLU

Question: What about the RLU (Time 108.781 s) of the same molecule?
Answer: 481.982 RLU

Question: And the RLU (Time 110.781 s)?
Answer: 458.143 RLU

Question: And the RLU (Time 112.781 s)?
Answer: 439.768 RLU

Question: And the RLU (Time 114.781 s)?
Answer: 433.077 RLU

Question: What about the RLU (Time 116.781 s) of the same molecule?
Answer: 415.823 RLU

Question: What about the RLU (Time 118.781 s) of the same molecule?
Answer: 408.859 RLU

Question: What about the RLU (Time 120.781 s) of the same molecule?
Answer: 392.039 RLU

Question: What about the RLU (Time 122.781 s) of the same molecule?
Answer: 431.314 RLU

Question: And the RLU (Time 124.781 s)?
Answer: 392.828 RLU

Question: What about the RLU (Time 126.781 s) of the same molecule?
Answer: 373.554 RLU

Question: What about the RLU (Time 128.781 s) of the same molecule?
Answer: 347.376 RLU

Question: And the RLU (Time 130.781 s)?
Answer: 337.354 RLU

Question: And the RLU (Time 132.781 s)?
Answer: 314.537 RLU

Question: What about the RLU (Time 134.781 s) of the same molecule?
Answer: 326.444 RLU

Question: And the RLU (Time 136.781 s)?
Answer: 292.52 RLU

Question: What about the RLU (Time 137.562 s) of the same molecule?
Answer: 313.513 RLU

Question: What about the RLU (Time 143.562 s) of the same molecule?
Answer: 250.659 RLU

Question: What about the RLU (Time 149.562 s) of the same molecule?
Answer: 229.584 RLU

Question: What about the RLU (Time 155.562 s) of the same molecule?
Answer: 203.982 RLU

Question: What about the RLU (Time 161.562 s) of the same molecule?
Answer: 211.817 RLU

Question: What about the RLU (Time 167.562 s) of the same molecule?
Answer: 206.485 RLU

Question: And the RLU (Time 173.562 s)?
Answer: 171.281 RLU

Question: And the RLU (Time 179.562 s)?
Answer: 153.445 RLU

Question: And the RLU (Time 185.562 s)?
Answer: 144.359 RLU

Question: And the RLU (Time 191.562 s)?
Answer: 143.458 RLU

Question: And the RLU (Time 197.562 s)?
Answer: 135.182 RLU

Question: And the RLU (Time 203.562 s)?
Answer: 115.034 RLU

Question: What about the RLU (Time 209.562 s) of the same molecule?
Answer: 107.877 RLU

Question: What about the RLU (Time 215.562 s) of the same molecule?
Answer: 83.8781 RLU

Question: What about the RLU (Time 221.562 s) of the same molecule?
Answer: 20.807 RLU

Question: What about the RLU (Time 227.562 s) of the same molecule?
Answer: 27.2515 RLU

Question: And the RLU (Time 233.562 s)?
Answer: -2.456 RLU

Question: What about the RLU (Time 239.562 s) of the same molecule?
Answer: 17.5402 RLU

Question: What about the RLU (Time 245.562 s) of the same molecule?
Answer: -0.008323 RLU

Question: And the RLU (Time 293.562 s)?
Answer: 2 RLU

Question: And the RLU (Time 299.562 s)?
Answer: -5.681 RLU

Question: What about the RLU (Time 305.562 s) of the same molecule?
Answer: 20.6398 RLU

Question: What about the RLU (Time 311.562 s) of the same molecule?
Answer: 25.3808 RLU

Question: And the RLU (Time 317.562 s)?
Answer: 16.3914 RLU

Question: And the RLU (Time 323.562 s)?
Answer: 41.1546 RLU

Question: What about the RLU (Time 329.562 s) of the same molecule?
Answer: -2.456 RLU

Question: What about the RLU (Time 335.562 s) of the same molecule?
Answer: 34.2464 RLU

Question: What about the RLU (Time 341.562 s) of the same molecule?
Answer: 21.8644 RLU

Question: What about the RLU (Time 347.562 s) of the same molecule?
Answer: 15.2738 RLU

Question: And the RLU (Time 353.562 s)?
Answer: 29.9395 RLU

Question: What about the RLU (Time 359.562 s) of the same molecule?
Answer: 27.2515 RLU

Question: What about the “Activation threshold concentration Tas2r144” value (p < 0.01 vs empty vector) of the same molecule?
Answer: 100 µM
